Literature values as cited in patent US20090253744A1, “Acylated piperidine derivatives as melanocortin-4 receptor modulators” (priority 2006, published 2009).

Key:
erectile dysfunction = details: in vivo
[1] = test system: males with psychogenic erectile dysfunction; details: injected intramuscularly or subcutaneously

## CCCc1nn(C)c2c(=O)[nH]c(-c3cc(S(=O)(=O)N4CCN(C)CC4)ccc3OCC)nc12 [Sildenafil]
Erectile dysfunction
  effective in % of patients: about 70%

## Ac-Nle-c[Asp-His-DPhe-Arg-Trp-Lys]-NH2 [MT-II]
[1]
  response rate: 75%
